Values after ≈ are worked out from the molar mass of the structure shown.
Tests used:
[1] = Inhibition of isocitrate lyase
[2] = Inhibition of Na+/K+ ATPase
[3] = tested on: Staphylococcus aureus; assay: Antibacterial activity against Staphylococcus aureus ATCC 6538p; assay type: functional
[4] = tested on: Escherichia coli; assay: Antibacterial activity against Escherichia coli ATCC 35270; assay type: functional
[5] = tested on: Salmonella typhimurium; assay: Antibacterial activity against Salmonella Typhimurium ATCC 14028; assay type: functional, Salmonella enterica subsp. enterica serovar Typhimurium; settings: Salmonella enterica
[6] = tested on: Micrococcus luteus; assay: Antibacterial activity against Micrococcus luteus IFO 12708; assay type: functional
[7] = tested on: Trichophyton rubrum; assay: Antifungal activity against Trichophyton rubrum IFO 9185; assay type: functional
[8] = tested on: Trichophyton mentagrophytes; assay: Antifungal activity against Trichophyton mentagrophytes IFO 40996; assay type: functional
[9] = tested on: K562; assay: Cytotoxicity against human K562 cells; assay type: functional; settings: read-out: LC50 (the source's name)
[10] = tested on: Bacillus subtilis; assay: Antibacterial activity against Bacillus subtilis ATCC 6633; assay type: functional
[11] = tested on: Aspergillus fumigatus; assay: Antifungal activity against Aspergillus fumigatus HIC 6094; assay type: functional
[12] = tested on: Candida albicans; assay: Antifungal activity against Candida albicans ATCC 10231; assay type: functional
[13] = tested on: Proteus vulgaris; assay: Antibacterial activity against Proteus vulgaris ATCC 3851; assay type: functional

| Compound | IC50 [1] [µM] | IC50 [2] [µM] | MIC [3] [µg/mL] | MIC [4] [µg/mL] | MIC [5] [µg/mL] | MIC [6] [µg/mL] | MIC [7] [µg/mL] | MIC [8] [µg/mL] | CC50 [9] [µM] | MIC [10] [µg/mL] | MIC [11] [µg/mL] | MIC [12] [µg/mL] | MIC [13] [µg/mL] |
| --- | --- | --- | --- | --- | --- | --- | --- | --- | --- | --- | --- | --- | --- |
| CCCCCCCCCCC/C=C/C[C@H](OS(=O)(=O)O)[C@H](O)[C@H](N)CO | 2 | 25 | 50 (≈ 126 µM) | > 100 | 100 (≈ 253 µM) | 25 (≈ 63.2 µM) | > 100 | 50 (≈ 126 µM) | 8 | 6 (≈ 15.2 µM) | 100 (≈ 253 µM) | 50 (≈ 126 µM) | 25 (≈ 63.2 µM) |
| C[C@@H]1[C@H](O)[C@@H](C)/C=C/C=C/C=C/C=C/C=C/C=C/C=C/[C@H](O[C@@H]2O[C@H](C)[C@@H](O)[C@H](N)[C@@H]2O)C[C@@H]2O[C@](O)(C[C@@H](O)C[C@@H](O)[C@H](O)CC[C@@H](O)C[C@@H](O)CC(=O)O[C@H]1C)C[C@H](O)[C@H]2C(=O)O [AMPHOTERICIN B] |  |  |  |  |  |  | 2 (≈ 2.16 µM) | 2 (≈ 2.16 µM) |  |  | 1 (≈ 1.08 µM) | 1 (≈ 1.08 µM) |  |
| CCCCCC[C@H]1C[C@H]1CCCCCCCCCC(=O)OC[C@@H](O)COP(=O)([O-])OCC(O)CO.[Na+] (relative stereo) | 87 | 4 | > 100 |  |  |  |  |  | 4 |  | > 100 | 13 | > 100 |
| CC1(C)S[C@@H]2[C@H](NC(=O)[C@H](N)c3ccccc3)C(=O)N2[C@H]1C(=O)O [AMPICILLIN] |  |  | 1 (≈ 2.86 µM) | 6 (≈ 17.2 µM) | 2 (≈ 5.72 µM) | 2 (≈ 5.72 µM) |  |  |  | 2 (≈ 5.72 µM) |  |  | 1 (≈ 2.86 µM) |
| COc1cccc2c1C(=O)c1c(O)c3c(c(O)c1C2=O)C[C@@](O)(C(=O)CO)C[C@@H]3O[C@H]1C[C@H](N)[C@H](O)[C@H](C)O1 [DOXORUBICIN] |  |  |  |  |  |  |  |  | 7 |  |  |  |  |
| O=C(O)CC[N+](=O)[O-] | 1 |  |  |  |  |  |  |  |  |  |  |  |  |
| C[C@@H]1O[C@@H](O[C@H]2C[C@@H](O)[C@]3(CO)[C@H]4[C@H](O)C[C@]5(C)[C@@H](C6=CC(=O)OC6)CC[C@]5(O)[C@@H]4CC[C@]3(O)C2)[C@H](O)[C@H](O)[C@H]1O [OUABAIN] |  | 4 |  |  |  |  |  |  |  |  |  |  |  |
| CC(C)CCCCCCCC/C=C/C[C@H](OS(=O)(=O)O)[C@H](O)[C@H](N)CO | 24 | 21 | > 100 | > 100 | 100 (≈ 253 µM) | 100 (≈ 253 µM) | > 100 | > 100 | 8 | 100 (≈ 253 µM) | > 100 | > 100 | 100 (≈ 253 µM) |
| CCCCCCCCCC/C=C/C[C@H](OS(=O)(=O)O)[C@H](O)[C@H](N)CO | 20 | 21 | > 100 | > 100 | > 100 | 100 (≈ 262 µM) | > 100 | > 100 | 7 | 12 (≈ 31.5 µM) | > 100 | > 100 | 25 (≈ 65.5 µM) |
